This is an account of results in patent US12673014B2, “Inhibitors of glycosphingolipid synthesis and methods of use” (priority 2018, dated 2026).

Common to all, as to format: in vivo, mouse
The test system of assay [1] is skin glycosphingolipids (ceramide, monohexosylceramide, lactosylceramide). Briefly: Skin glycosphingolipids by LC-ESI/MS/MS in ApoE-/- mice fed western diet. From the text:
Sample preparation: Glycosphingolipid molecular species were extracted according to a modified Bligh and Dyer procedure^55 Briefly, about 50-mg of each tissue sample was homogenized with 10 volumes of HPLC water at room temperature, followed by addition of 30 volumes methanol solution containing ammonium formate and d18:1/C12:0 ceramide as an internal standard (Avanti Polar Lipids, Alabaster, Alabama). The mixture was vortexed (Vortex-Genie, Model G560, Scientific Industries, Bohemia, NY), and 40 volumes of chloroform added. The mixture was vortexed again and centrifuged (Eppendorf centrifuge #5424) at 1,000 g for 10 minutes. The chloroform (bottom layer) was separated and dried using a Savant™ SPD131 SpeedVac (Thermo Scientific, Pittsburgh, PA, USA). Dried extracts were resuspended in pure methanol and sealed and stored at −80° C. until analysis by LC-ESI/MS/MS, as described previously^30-40.

The next assay has as its system B1-4GalT-V. Briefly: GalT-V mass in skin tissue by ELISA, ApoE-/- mice fed western diet. In general terms: An ELISA detects its analyte on a solid surface through an enzyme-linked reagent.
A further assay concerns LacCer synthase (GalT-V). Briefly: q-RT-PCR mRNA mass in skin tissue. The conditions noted are these: placebo vs D-PDMP fed ApoE-/- mice (data not shown). As to the method: Analysis of gene expression by quantitative Real-Time PCR: A ~50-mg piece of skin tissue was homogenized from each mice and total RNA was isolated using TRIsol reagent according to the manufacturer's instructions (Invitrogen, Camarillo, CA). Two microgram of RNA were reverse transcribed with SuperScript II using random primers. The primer sequence for GalT-V were as follows:
The primers were synthesized by Integrated DNA Technologies (Coralville, USA). Real time PCR were performed using SYBR Green PCR Master Mix PCR Master Mix (applied Biosystems, Foster City, CA, USA) in an Applied Biosystems Step one Real time PCR system as described previously^52. Data were normalized to GAPDH mRNA levels. Expression suite software (Applied Biosystems) was used to analyze the data.

In assay [2] the test system is glucosylceramide synthase (UCGC). Briefly: q-RT-PCR mRNA mass in skin tissue. The conditions noted are these: placebo vs D-PDMP fed ApoE-/- mice (data not shown).
The test system of assay [3] is ApoE−/− mice fed a western diet. Briefly: Skin and hair phenotype (hair discoloration, hair loss, skin inflammation, wounds) in ApoE-/- mice fed western diet. From the text: Male, 11-week-old apolipoprotein E-deficient (ApoE−/−) mice were purchased from Jackson Labs (Bar Harbor, Maine), and fed a western diet from the age of 12 to 20 weeks. Next, they were divided into the following diet/treatment groups.
Measurement of skin discoloration: An oval shape was drawn on the photographs taken from mice at the age of 36 weeks. This oval space covered the back area of mice from the neck to the tail ([…]). Using the free drawing pen and measure/analyze tool, the white area was measured for each mouse. The ratio of white area to the total area was then calculated, and the standard deviations for all the animals in each cage (N=5) was calculated and plotted.
Measurement of wounds and wound healing: For mouse skin wound analysis, the number of visible wounds in placebo-vs. BPD-treated mice (N=5 in each group), were counted manually. Then, averages of the wounds for each group were determined, as were the ratios of wounds in BPD-vs placebo-treated mice. Those ratios were then converted to percentages, expressed as “% wound healing.”

[4] abbreviates: western diet, BPD 1-10 mpk, D-PDMP 10 mpk, 20-36 weeks.

Experimental for B1-4GalT-V: Measurement of B1-4GalT-V mass in skin tissue: Here, about 10-mg skin tissue was homogenized in RIPA buffer and centrifuged at 10,000 rpm. The mass of GalT-V was measured in the supernatant fraction using an ELISA assay. About 100-μg of each protein sample (in triplicate) was loaded in 96-well, medium-binding, clear flat bottom polystyrene ELISA plates (Immulux, Chantilly VA)-total volume adjusted to 100 μL with bicarbonate buffer (50 mM Na2CO3—NaHCO3). […] This antibody specifically recognizes human, mouse and rat tissue B4GalT-V. Moreover, this interaction can be inhibited by large volumes of the GalT-V peptide but not other proteins or scrambled peptide. After overnight incubation at 4 C, 200 μL of blocking buffer (1% bovine serum albumin/phosphate buffered saline) was added and incubation continued overnight. […] C., followed by incubation for 1-hr at 37 deg. C. with a horseradish peroxidase-conjugated IgG (Sigma) secondary antibody. Finally, 100-μL of TMB solution was added, and after 10 min incubation at 37° C., absorbance was measured at 450 nm.

In the case of `CCCCCCCCCC(=O)N[C@H](CN1CCOCC1)[C@H](O)c1ccccc1` [D-PDMP, D-threo-1-phenyl-2-decanoylamino-3-morpholino-1-propanol], the “lactosylceramide d18:1/22:0 and d18:1/24:1 in skin” value in assay [1] (1 mpk BPD or 10 mpk D-PDMP) is “restored to normal”. For the same molecule, the “levels of fatty acid molecular species of skin ceramide” value in assay [1] (1 mpk BPD or 10 mpk D-PDMP, western diet lowered them ~3-fold) is given as “increased them to normal levels”. In addition, the “d18:1/24:1 monohexosylceramide in skin” value in assay [1] (1 mpk BPD vs 10 mpk D-PDMP, western diet lowered it ~3-fold) is “but not 10 mpk D-PDMP, completely restored”. In addition, the “d18:1/26:1 ceramide in skin” value in assay [1] (10 mpk D-PDMP) is “did not reverse the loss”. In addition, the “lactosylceramide d18:1/16:0 in skin” value in assay [1] (36 weeks, western diet raised it 3-fold) is “modestly decreased”. For the same molecule, the “18:1/24:0 monohexosylceramide in skin” value in assay [1] (printed: 1 mpk D-PDMP as efficacious as 10 mpk BPD, western diet lowered it ~1.5-fold) is listed as “reversed”. For the same molecule, in assay [1] (setting [4]), the “glucosylceramide level in skin” value is reported as “also increased” and the “total ceramide level in skin” value was “also increased”. Further, in assay [1] (western diet, BPD or D-PDMP), the “total lactosylceramide level in skin” value is “decreased”. Further, the “mass of GalT-V in skin tissue” value in the assay with B1-4GalT-V is “showed a decrease”. For the same molecule, the “mRNA mass of LacCer synthase (GalT-V) in skin” value in the assay with LacCer synthase (GalT-V) is given as “No statistical difference”. Besides, the “mRNA mass of glucosylceramide synthase in skin” value in assay [2] was “No statistical difference”. For the same molecule, in assay [3] (10 mpk D-PDMP daily oral gavage, age 20-36 weeks, western diet), the “% wound healing” value amounted to 83%. In addition, the “hair discoloration, hair loss, and skin inflammation” value in assay [3] (10 mpk unbound D-PDMP with western diet, 20 to 36 weeks) is given as “also interfered with these pathologies”.
